Test results as given in US8871753B2, “Macrocyclic compounds and their use as kinase inhibitors” (Incyte Corporation, priority 2008, dated 2014).
Counter-ions that a name gives are not always drawn. Like-named read-outs stand apart in the source and are kept apart here.

Experiments:
Assay type in all cases: biochemical
[1] = biological target: T1, human JAK2 (a.a. 828-1132) (Homo sapiens, UniProt O60674); assay: In vitro JAK kinase assay (HTRF, phosphorylation of a biotinylated peptide), JAK2
T1 construct: JAK2 (a.a. 828-1132); His tag (N); made in house; host or cells: insect cells (baculovirus)
Summary of the method: (§1)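 Kinase activity was measured as phosphorylation of a biotinylated peptide, with ATP at 90 μM for JAK1, 30 μM for JAK2 and 3 μM for JAK3. Reactions ran 1 hr at room temperature, were stopped with EDTA plus SA-APC and Eu-Py20, and were read by HTRF after 40 minutes of antibody binding.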

[2] = biological target: T2, human JAK3 (a.a. 781-1124) (Homo sapiens, UniProt P52333); assay: In vitro JAK kinase assay (HTRF, phosphorylation of a biotinylated peptide), JAK3
T2 construct: JAK3 (a.a. 781-1124); His tag (N); made in house; host or cells: insect cells (baculovirus)
Summary of the method: as §1

[3] = biological target: T3, human JAK1 (a.a. 837-1142) (Homo sapiens, UniProt P23458); assay: In vitro JAK kinase assay (HTRF, phosphorylation of a biotinylated peptide), JAK1; conditions: read-out: JAK1 IC50
T3 construct: human JAK1 (a.a. 837-1142); His tag (N); made in house; host or cells: insect cells (baculovirus)
Summary of the method: as §1

[4] = biological target: T4, Recombinant Human Anaplastic Lymphoma Kinase (Homo sapiens, UniProt Q9UM73); assay: ALK HTRF kinase assay
T4 construct: purchased Invitrogen, Carlsbad, Calif
Summary of the method: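 Biotinylated peptide substrate, recombinant human ALK; detection via europium-chelate antibody to phosphotyrosine paired with streptavidin-APC. Potency expressed as IC50 from four-parameter curve fitting.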

TYK2 = TYK2 (Homo sapiens, UniProt P29597); assay: TYK2 kinase inhibition (Table A1)
[5] = method AA1 (30 μM ATP) or AA2 (1000 μM ATP), not stated per value
[6] = method AA1 (3 μM ATP) or AA2 (1000 μM ATP), not stated per value
[7] = method AA1 (90 μM ATP) or AA2 (1000 μM ATP), not stated per value
[8] = compound at 500 nM or 1 mM, 90 μM ATP
[9] = compound at a concentration of 500 nM or 1 mM (not specified), cells shown as percentage

T3 sequence (P23458 849-1154): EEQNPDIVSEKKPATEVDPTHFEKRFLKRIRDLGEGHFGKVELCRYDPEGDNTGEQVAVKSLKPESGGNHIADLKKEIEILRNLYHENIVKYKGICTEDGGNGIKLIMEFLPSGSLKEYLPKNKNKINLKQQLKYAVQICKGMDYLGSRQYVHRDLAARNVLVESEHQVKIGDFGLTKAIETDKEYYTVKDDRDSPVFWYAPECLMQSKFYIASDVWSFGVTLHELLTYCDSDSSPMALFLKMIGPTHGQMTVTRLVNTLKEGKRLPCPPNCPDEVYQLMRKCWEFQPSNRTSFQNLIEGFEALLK
TYK2, sequence (P29597 whole entry): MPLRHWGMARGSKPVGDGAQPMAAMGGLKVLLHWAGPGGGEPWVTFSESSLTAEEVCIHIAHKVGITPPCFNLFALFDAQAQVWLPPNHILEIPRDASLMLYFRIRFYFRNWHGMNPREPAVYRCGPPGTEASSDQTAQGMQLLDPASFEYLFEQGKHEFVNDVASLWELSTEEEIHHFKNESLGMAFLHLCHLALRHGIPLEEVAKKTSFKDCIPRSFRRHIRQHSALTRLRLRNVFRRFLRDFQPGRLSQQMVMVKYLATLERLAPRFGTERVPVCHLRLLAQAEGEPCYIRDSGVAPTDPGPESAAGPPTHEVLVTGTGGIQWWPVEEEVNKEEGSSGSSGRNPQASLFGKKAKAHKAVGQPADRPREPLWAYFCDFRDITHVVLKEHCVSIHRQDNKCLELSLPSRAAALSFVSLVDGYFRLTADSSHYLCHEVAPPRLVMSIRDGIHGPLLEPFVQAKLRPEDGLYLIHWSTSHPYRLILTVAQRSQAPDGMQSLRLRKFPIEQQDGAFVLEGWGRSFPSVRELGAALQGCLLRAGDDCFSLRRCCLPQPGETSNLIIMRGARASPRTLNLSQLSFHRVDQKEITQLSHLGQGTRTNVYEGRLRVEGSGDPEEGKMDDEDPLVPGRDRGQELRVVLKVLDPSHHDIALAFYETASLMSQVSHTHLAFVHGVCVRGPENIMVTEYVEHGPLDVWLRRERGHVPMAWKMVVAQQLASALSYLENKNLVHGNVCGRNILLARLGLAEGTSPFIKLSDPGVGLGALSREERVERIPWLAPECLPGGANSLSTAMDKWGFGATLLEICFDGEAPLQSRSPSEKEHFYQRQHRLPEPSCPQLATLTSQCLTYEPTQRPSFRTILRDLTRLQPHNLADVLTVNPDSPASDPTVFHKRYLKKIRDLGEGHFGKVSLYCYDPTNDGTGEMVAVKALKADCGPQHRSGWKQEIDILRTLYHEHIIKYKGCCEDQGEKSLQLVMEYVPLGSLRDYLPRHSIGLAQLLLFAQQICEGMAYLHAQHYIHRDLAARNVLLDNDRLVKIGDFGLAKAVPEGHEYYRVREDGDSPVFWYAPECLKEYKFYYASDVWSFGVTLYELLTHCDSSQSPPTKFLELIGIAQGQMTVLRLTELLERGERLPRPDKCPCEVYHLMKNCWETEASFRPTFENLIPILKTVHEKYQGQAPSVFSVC
T4 sequence (Q9UM73 19-1620): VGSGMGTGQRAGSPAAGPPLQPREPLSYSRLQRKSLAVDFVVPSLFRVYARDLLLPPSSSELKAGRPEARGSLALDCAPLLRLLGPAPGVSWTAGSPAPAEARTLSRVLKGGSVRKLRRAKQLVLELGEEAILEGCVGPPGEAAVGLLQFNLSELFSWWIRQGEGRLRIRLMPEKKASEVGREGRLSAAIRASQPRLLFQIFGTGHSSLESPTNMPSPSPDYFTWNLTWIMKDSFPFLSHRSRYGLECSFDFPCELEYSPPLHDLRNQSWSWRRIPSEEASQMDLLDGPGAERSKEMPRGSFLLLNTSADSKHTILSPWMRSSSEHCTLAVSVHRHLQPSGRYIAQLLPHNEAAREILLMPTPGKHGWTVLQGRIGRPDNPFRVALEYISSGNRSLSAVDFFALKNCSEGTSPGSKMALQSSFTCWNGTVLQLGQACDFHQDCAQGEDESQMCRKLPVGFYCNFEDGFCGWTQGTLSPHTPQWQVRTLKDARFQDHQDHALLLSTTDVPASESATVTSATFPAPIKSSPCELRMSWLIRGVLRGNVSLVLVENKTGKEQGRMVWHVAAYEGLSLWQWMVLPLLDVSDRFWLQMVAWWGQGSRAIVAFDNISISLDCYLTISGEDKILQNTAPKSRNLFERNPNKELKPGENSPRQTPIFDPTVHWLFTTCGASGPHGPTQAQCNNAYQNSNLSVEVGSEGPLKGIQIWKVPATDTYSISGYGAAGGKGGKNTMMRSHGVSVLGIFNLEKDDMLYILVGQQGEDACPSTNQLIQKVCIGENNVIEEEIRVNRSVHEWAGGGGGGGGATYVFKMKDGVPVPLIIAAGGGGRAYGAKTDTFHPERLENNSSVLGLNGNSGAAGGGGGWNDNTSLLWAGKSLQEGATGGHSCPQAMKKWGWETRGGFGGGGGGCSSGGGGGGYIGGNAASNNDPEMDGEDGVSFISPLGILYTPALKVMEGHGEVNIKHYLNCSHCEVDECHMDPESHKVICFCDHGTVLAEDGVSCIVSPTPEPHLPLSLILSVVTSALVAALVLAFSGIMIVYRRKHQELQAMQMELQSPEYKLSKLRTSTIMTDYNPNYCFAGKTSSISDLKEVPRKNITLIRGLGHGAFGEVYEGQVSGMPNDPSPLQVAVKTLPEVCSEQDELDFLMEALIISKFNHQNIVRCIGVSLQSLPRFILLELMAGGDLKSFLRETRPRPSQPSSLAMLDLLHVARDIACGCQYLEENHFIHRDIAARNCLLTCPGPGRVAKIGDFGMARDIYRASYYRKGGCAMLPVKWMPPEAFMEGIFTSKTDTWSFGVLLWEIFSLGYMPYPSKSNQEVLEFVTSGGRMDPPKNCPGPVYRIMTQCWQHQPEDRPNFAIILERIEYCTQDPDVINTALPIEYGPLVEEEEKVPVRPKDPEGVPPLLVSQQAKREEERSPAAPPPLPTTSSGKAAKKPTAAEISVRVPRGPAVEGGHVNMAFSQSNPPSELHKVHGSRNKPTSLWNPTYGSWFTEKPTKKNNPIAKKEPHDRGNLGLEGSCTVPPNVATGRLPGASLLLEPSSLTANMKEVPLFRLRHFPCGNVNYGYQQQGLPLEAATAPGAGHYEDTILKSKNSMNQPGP
T1 sequence (O60674 828-1132): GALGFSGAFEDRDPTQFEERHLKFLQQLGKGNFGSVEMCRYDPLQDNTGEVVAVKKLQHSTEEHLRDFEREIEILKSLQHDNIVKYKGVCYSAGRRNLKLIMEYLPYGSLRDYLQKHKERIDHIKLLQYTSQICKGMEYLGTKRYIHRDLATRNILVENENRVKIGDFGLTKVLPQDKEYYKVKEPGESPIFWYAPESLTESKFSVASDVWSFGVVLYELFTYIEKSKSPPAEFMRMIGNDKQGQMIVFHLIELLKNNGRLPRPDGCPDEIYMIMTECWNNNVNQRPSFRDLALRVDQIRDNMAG
T2 sequence (P52333 781-1124): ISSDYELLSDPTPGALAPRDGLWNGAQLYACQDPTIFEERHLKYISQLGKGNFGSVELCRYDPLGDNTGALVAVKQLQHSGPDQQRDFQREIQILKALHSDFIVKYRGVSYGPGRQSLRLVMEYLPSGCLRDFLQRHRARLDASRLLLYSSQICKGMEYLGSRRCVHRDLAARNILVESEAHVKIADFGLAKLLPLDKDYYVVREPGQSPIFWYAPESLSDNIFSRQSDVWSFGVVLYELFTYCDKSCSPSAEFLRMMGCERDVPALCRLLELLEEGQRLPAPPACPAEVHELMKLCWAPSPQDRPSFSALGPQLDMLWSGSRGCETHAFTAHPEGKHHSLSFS

IC50 [1, 5] [nM] | IC50 [2, 6] [nM] | IC50 [3, 7] [nM] | ALK % of inhibition at a concentration of 500 nM or 1 mM [4, 8] [%] | IC50 (TYK2) [nM] | Compound | also measured
4.5 | 7.8 | 2.2 | 35 | 15 | O=C(Nc1ccc2cc1CCc1cccc(c1)Nc1ncc(Cl)c(n1)N2)[C@@H]1CCN(C(=O)c2ccccc2)C1 [Example A52, (3R)-1-Benzoyl-N-[6-chloro-2,4,8,22-tetraazatetracyclo[14.3.1.1(3,7).1(9,13)]docosa-1(20),3(22),4,6,9(21),10,12,16,18-nonaen-12-yl]pyrrolidine-3-carboxamide trifluoroacetate] | 
 |  |  |  |  | O=C(Nc1ccc2cc1CCc1cccc(c1)Nc1ncc(Cl)c(n1)N2)c1ccc(Cl)nc1 [Example B69, 6-Chloro-N-[6-chloro-2,4,8,22-tetraazatetracyclo[14.3.1.1(3,7).1(9,13)]docosa-1(20),3(22),4,6,9(21),10,12,16,18-nonaen-12-yl]nicotinamide bis(trifluoroacetate)] | IC50 ([1]; Table B1): 0.6 nM; IC50 ([2]; Table B1): 3.6 nM; IC50 ([3]; Table B1): 0.45 nM; ALK % of inhibition at a concentration of 500 nM or 1 mM [4, 9]: 68%; IC50 (TYK2; Table B1): 2.3 nM
100 | > 200 | 9.3 | 31 | 150 | O=C(CC1CCN(S(=O)(=O)c2ccco2)CC1)Nc1ccc2cc1CCc1cncc(c1)Nc1ncc(Cl)c(n1)N2 [Example A201, N-[6-Chloro-2,4,8,18,22-pentaazatetracyclo[14.3.1.1(3,7).1(9,13)]docosa-1(20),3(22),4,6,9(21),10,12,16,18-nonaen-12-yl]-2-[1-(2-furylsulfonyl)piperidin-4-yl]acetamide bis(trifluoroacetate)] | 
6.2 | 10 | 11 | 54 | 22 | Oc1cc2cc(c1)Nc1nc(ncc1Cl)Nc1cccc(c1)CC2 [Example A22, 6-Chloro-2,4,8,22-tetraazatetracyclo[14.3.1.1(3,7).1(9,13)]docosa-1(20),3(22),4,6,9(21),10,12,16,18-nonaen-11-ol trifluoroacetate] | 
 |  |  |  |  | O=C(NCc1ccccc1)N1CCN(c2ccc(-c3cc4cc(c3)Nc3ncc(Cl)c(n3)Nc3cccc(c3)OCC4)cn2)CC1 [Example D48, bis(trifluoroacetate)] | IC50 ([1]; Table D1): 2.1 nM; IC50 ([2]; Table D1): 27 nM; IC50 ([3]; Table D1): 4.9 nM; IC50 ([4]; Table D1, 90 μM ATP): > 1000 nM; IC50 (TYK2; Table D1): 8.3 nM
 |  |  |  |  | Clc1cnc2nc1Nc1cccc(c1)NCCOc1cccc(c1)N2 [Example D72, 6-Chloro-17-oxa-2,4,8,14,24-pentaazatetracyclo[16.3.1.1(3,7).1(9,13)]tetracosa-1(22),3(24),4,6,9(23),10,12,18,20-nonaene bis(trifluoroacetate)] | IC50 ([1]; Table D1): 2.2 nM; IC50 ([2]; Table D1): 7.4 nM; IC50 ([3]; Table D1): 12 nM; IC50 ([4]; Table D1, 90 μM ATP): 772 nM; IC50 (TYK2; Table D1): 6.9 nM
180 | > 200 | 13 | 18 | 190 | N#Cc1ccccc1N1CCC(CC(=O)Nc2ccc3cc2CCc2cncc(c2)Nc2ncc(Cl)c(n2)N3)CC1 [Example A220, N-[6-Chloro-2,4,8,18,22-pentaazatetracyclo[14.3.1.1(3,7).1(9,13)]docosa-1(20),3(22),4,6,9(21),10,12,16,18-nonaen-12-yl]-2-[1-(2-cyanophenyl)piperidin-4-yl]acetamide tris(trifluoroacetate)] | 
 |  |  |  |  | O=C(NCCNS(=O)(=O)c1ccc(Cl)nc1)Nc1ccc2cc1CCc1cccc(c1)Nc1ncc(Cl)c(n1)N2 [Example B331, 6-Chloro-N-{2-[({[6-chloro-2,4,8,22-tetraazatetracyclo[14.3.1.1(3,7).1(9,13)]docosa-1(20),3(22),4,6,9(21),10,12,16,18-nonaen-12-yl]amino}carbonyl)amino]ethyl}pyridine-3-sulfonamide trifluoroacetate] | IC50 ([1]; Table B1): 3.6 nM; IC50 ([2]; Table B1): 2.7 nM; IC50 ([3]; Table B1): 2 nM; ALK % of inhibition at a concentration of 500 nM or 1 mM ([4]; percentage inhibition of the example compound at a concentration of 500 nM or 1 mM (not specified which)): 27%; IC50 (TYK2; Table B1): 16 nM
13 | 59 | 25 | 19 | 33 | O=C(CN1CCNCC1)Nc1ccc2cc1CCc1cccc(c1)Nc1ncc(Cl)c(n1)N2 [Example A114, tris(trifluoroacetate)] | 
16 | 150 | 0.9 | 29 | 20 | O=C(CN1CCN(c2nc3cccnc3o2)CC1)Nc1ccc2cc1CCc1cncc(c1)Nc1ncc(Cl)c(n1)N2 [Example A118, N-[6-Chloro-2,4,8,18,22-pentaazatetracyclo[14.3.1.1(3,7).1(9,13)]docosa-1(20),3(22),4,6,9(21),10,12,16,18-nonaen-12-yl]-2-(4-[1,3]oxazolo[5,4-b]pyridin-2-ylpiperazin-1-yl)acetamide tris(trifluoroacetate)] | 
 |  |  |  |  | O=C(Nc1ccc2cc1CCc1cccc(c1)Nc1ncc(Cl)c(n1)N2)c1ccccc1Cl [Example B41, 2-Chloro-N-[6-chloro-2,4,8,22-tetraazatetracyclo[14.3.1.1(3,7).1(9,13)]docosa-1(20),3(22),4,6,9(21),10,12,16,18-nonaen-12-yl]benzamide hydrochloride] | IC50 ([1]; Table B1): 0.63 nM; IC50 ([2]; Table B1): 6.5 nM; IC50 ([3]; Table B1): 1.7 nM; IC50 ([4]; Table B1, cells without percent sign): 140 nM; IC50 (TYK2; Table B1): 2.3 nM
 |  |  |  |  | N#Cc1ccccc1S(=O)(=O)Nc1cc2cc(c1)Nc1nc(ncc1Cl)Nc1cccc(c1)CC2 [Example B216, N-[6-Chloro-2,4,8,22-tetraazatetracyclo[14.3.1.1(3,7).1(9,13)]docosa-1(20),3(22),4,6,9(21),10,12,16,18-nonaen-11-yl]-2-cyanobenzenesulfonamide trifluoroacetate] | IC50 ([1]; Table B1): 29 nM; IC50 ([2]; Table B1): 166 nM; IC50 ([3]; Table B1): 48 nM; ALK % of inhibition at a concentration of 500 nM or 1 mM [4, 9]: 1.3%; IC50 (TYK2; Table B1): 66 nM
1.1 | > 100 | 0.3 | 48 | 5.1 | Cc1cccc(NC(=O)N2CCC(CC(=O)Nc3ccc4cc3CCc3cncc(c3)Nc3ncc(Cl)c(n3)N4)CC2)c1 [Example A150, 4-(2-{[6-Chloro-2,4,8,18,22-pentaazatetracyclo[14.3.1.1(3,7).1(9,13)]docosa-1(20),3(22),4,6,9(21),10,12,16,18-nonaen-12-yl]amino}-2-oxoethyl)-N-(3-methylphenyl)piperidine-1-carboxamide bis(trifluoroacetate)] | 
18 | 248 | 7.9 | 23 | 17 | Cc1ncoc1C(=O)N1CCC(CC(=O)Nc2ccc3cc2CCc2cncc(c2)Nc2ncc(Cl)c(n2)N3)CC1 [Example A132, N-[6-Chloro-2,4,8,18,22-pentaazatetracyclo[14.3.1.1(3,7).1(9,13)]docosa-1(20),3(22),4,6,9(21),10,12,16,18-nonaen-12-yl]-2-{1-[(4-methyl-1,3-oxazol-5-yl)carbonyl]piperidin-4-yl}acetamide bis(trifluoroacetate)] | 
95 | > 200 | 14 | 34 | > 200 | N#Cc1cccnc1N1CCC(CC(=O)Nc2ccc3cc2CCc2cncc(c2)Nc2ncc(Cl)c(n2)N3)CC1 [Example A177, N-[6-Chloro-2,4,8,18,22-pentaazatetracyclo[14.3.1.1(3,7).1(9,13)]docosa-1(20),3(22),4,6,9(21),10,12,16,18-nonaen-12-yl]-2-[1-(3-cyanopyridin-2-yl)piperidin-4-yl]acetamide tris(trifluoroacetate)] | 
32 | 300 | 128 |  | 150 | Cc1ccc2cc1Nc1ncc(Cl)c(n1)Nc1cccc(c1)CC2 [Example A7, 6-Chloro-19-methyl-2,4,8,22-tetraazatetracyclo[14.3.1.1(3,7).1(9,13)]docosa-1(20),3(22),4,6,9(21),10,12,16,18-nonaene trifluoroacetate] | IC50 ([4]; 90 μM ATP): 523 nM
11 | 16 | 29 | 41 | 22 | O=C(Nc1ccc2cc1CCc1cccc(c1)Nc1ncc(Cl)c(n1)N2)C1CCN(C(=O)NC2CCCC2)CC1 [Example A61, N(4)-[6-Chloro-2,4,8,22-tetraazatetracyclo[14.3.1.1(3,7).1(9,13)]docosa-1(20),3(22),4,6,9(21),10,12,16,18-nonaen-12-yl]-N(1)-cyclopentylpiperidine-1,4-dicarboxamide trifluoroacetate] | 
